Test results taken from patent US20180353472A1, “UNIT DOSE FORMULATIONS FOR USE AS AN ANTI-FUGETACTIC AGENT” (THE GENERAL HOSPITAL CORPORATION d.b.a MASSACHUSETTS …, priority 2015, published 2018).

What was measured:
[1] = test system: breast cancer tumor which over-expresses CXCL12; settings: human patient, dose between 0.000001% and 65% of the dose appropriate for recruiting stem cells, once a day for five days, optionally followed by a chemotherapeutic drug
Procedure: A human patient with a breast cancer tumor which over-expresses CXCL12 is administered AMD3100 at a dose between 0.000001% and 65% of the dose appropriate for recruiting stem cells once a day for five days, optionally followed by a chemotherapeutic drug.

[2] = test system: tumor that expresses high levels of CXCL12; settings: mice, subcutaneous, dose between 0.000001% and 65% of the dose appropriate for recruiting stem cells, once a day for 5 days; assessed one to three days after final dose
Procedure: Mice are injected with tumor cells (subcutaneous injection) from a tumor that expresses high levels of CXCL12 and a tumor is allowed to develop.
One to three days after the final AMD3100 dose, mice are assessed for tumor growth and the reduction or knock down of fugetaxis.

## c1cc(CN2CCCNCCNCCCNCC2)ccc1CN1CCCNCCNCCCNCC1 [AMD3100, 1, 1′-[1,4-phenylenebis (methylene)]-bis-1,4,8,11-tetraazacyclotetradecane]
[1]
  T cell recruitment into the tumor: increased T cell recruitment into the tumor
  patient survival: increase in patient survival
  tumor volume: decrease in tumor volume
[2]
  anti-fugetactic effect (reduction or knock down of fugetaxis): will have an anti-fugetactic effect
